{
  "source": "patent US12023387B2",
  "about": "“NIR-II emissive luminogens” (THE HONG KONG UNIVERSTIY OF SCIENCE AND TECHNOLOGY, priority 2018, dated 2024)",
  "key": {"[1]": {"assay": "UV-vis absorption spectrum in THF solution", "assay_type": "physicochemical", "details": "THE (THF) solution, 10 μM"}, "nude mouse": {"test_system": "nude mouse", "assay": "In vivo dynamic NIR-II fluorescence imaging after intravenous injection", "details": "i.v. injection of TSPCI solution in water, images 1-5 s after injection, 808 nm excitation, 1000 nm long-pass filter", "description": "NIR-I fluorescence imaging was performed using the Maestro in vivo imaging system (CRI, Inc.). To acquire fluorescence of an NIR-I AIEgen (TTD), a 605 nm (+25 nm) bandpass filter and a 645 nm longpass filter were selected as the excitation filter and the emission filter, respectively. NIR-II imaging was performed using the home-built NIR-II in vivo imaging system. The excitation light was provided by an 808 nm diode laser. The emitted light from the TSPCI was filtered through a 1000 nm long-pass filter, which was coupled with a two-dimensional InGaAs array camera (with spectral response range of 900-1700 nm, Photonic Science) for NIR-II fluorescence signal collection. The excitation power density at the imaging plane was 6.4 mW/cm^2, much lower than the safe exposure limit of 330 mW/cm^2 at 808 nm determined by the International Commission on Nonionizing Radiation Protection. […]\nTSPCI was added to water under sonication to provide a TSPCI solution. […] FIG. 7A depicts an NIR-II fluorescence image of the nude mouse before intravenous injection of TSPCI solution. FIG. 7B depicts an NIR-II fluorescence image of the nude mouse one second after injection of TSPCI solution. FIG. 7C depicts an NIR-II fluorescence image of the nude mouse two seconds after injection of TSPCI solution. FIG. 7D depicts an NIR-II fluorescence image of the nude mouse three seconds after injection of TSPCI solution. […]"}, "[2]": {"assay": "AIE property: photoluminescence in THF/water mixtures with varying water fraction", "assay_type": "physicochemical", "description": "FIG. 4 depicts (A) an image of TSPCI powder in daylight; (B) the UV-vis absorption spectrum of TSPCI; (C) the photoluminescence (PL) spectra of TSPCI in THF and THF/water mixtures with different water fractions (fw); and (D) the plot of relative PL intensities at 950 nm versus the fw (concentration: 10 μM; excitation wavelength: 808 nm).\nThe AIE property of TSPCI was investigated by varying the water fractions (fw) in tetrahydrofuran (THF)/water mixtures (FIG. 4C). […] The strongest emission intensity at ˜950 nm reached its maximum value at 90 vol % water content, which was ˜35-fold higher than that in the pure THF due to the restriction of intramolecular rotation ([…])."}},
  "data": [
    {"smiles": "N#CC(C#N)=C1C(=C2C=C(/C=C/c3ccc(N(c4ccccc4)c4ccccc4)cc3)OC(/C=C/c3ccc(N(c4ccccc4)c4ccccc4)cc3)=C2)C(=C(C#N)C#N)c2ccccc21", "note": "[TSPCI]", "values": [
      {"measurement": "maximal absorption wavelength", "setting": "[1]", "value": 682, "unit": "nm"},
      {"measurement": "in vivo NIR-II imaging performance", "setting": "nude mouse", "value": "high contrast and penetration depth"},
      {"measurement": "wavelength of strongest emission intensity", "setting": "[2]; THF/water mixtures, excitation 808 nm", "value": "~950", "unit": "nm"},
      {"measurement": "emission spectrum range in aggregate state", "setting": "[2]; aggregate state, bright emission, NIR-II", "value": "1000-1700 nm"},
      {"measurement": "emission intensity enhancement versus pure THF", "setting": "[2]; at ~950 nm, 90 vol % water content in THF/water, 10 μM, excitation 808 nm", "value": "~35", "unit": "fold"},
      {"measurement": "emission in pure THF solution", "setting": "[2]; pure THF (fw=0)", "value": "no emission was observed"}
    ]}
  ]
}
